US20240417410A1, “TRICYCLIC COMPOUNDS FOR THE TREATMENT OF CANCER” (Hoffmann-La Roche Inc., priority 2023, published 2024)

What was measured:
[1] = target: KRAS G12C-BRAF complex (Homo sapiens (Human), UniProt P01116+P62937, G12C); test: KRAS-BRAF with CYPA (500 nM) interaction assay (TR-FRET, Example 136); assay type: biochemical; conditions: KRAS G12C-BRAF disruption
[2] = system: SW620 cells (KRAS G12V); test: Cell viability assay (Cell Counting Kit-8, 3-day); assay type: cell-based, human; conditions: Homo sapiens, SW-620; SW620, 72 hrs incubation
Method in brief: (§1)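 Seed NCI-H358 5,000/well, AGS and SW620 2,000/well; overnight. Compound, 0.5% DMSO final, 72 hrs. CCK-8 2 hrs, OD450–OD650. IC50: 4-parameter fit.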

[3] = system: NCI-H358 cells (KRAS G12C); test: Cell viability assay (Cell Counting Kit-8, 3-day); assay type: cell-based, human; conditions: Homo sapiens, NCI-H358, 72 h, NCI-H358, 72 hrs incubation
Method in brief: as §1

[4] = system: AGS cells (KRAS G12D); test: Cell viability assay (Cell Counting Kit-8, 3-day); assay type: cell-based, human; conditions: Homo sapiens, 72 h, 72 hrs incubation
Method in brief: as §1

[5] = system: phosphorylation of ERK, KRAS G12C in NCI-H358 cells; test: pERK inhibition assay; assay type: cell-based; conditions: Homo sapiens, NCI-H358, 4 h
Method in brief: (§2)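 Cells in RPMI-1640 with 10% FBS were plated overnight (30,000/well H358, 20,000 AGS, 30,000 SW620) and treated 4 h with compounds at 0.5% DMSO. After formaldehyde fixation and methanol permeabilization, pERK was detected by in-cell ELISA with HRP secondary and TMB (OD450); IC50 from 4-parameter fit.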

[6] = system: phosphorylation of ERK, KRAS G12D in AGS cells; test: pERK inhibition assay; assay type: cell-based; conditions: Homo sapiens, AGS, 4 h
Method in brief: as §2

[7] = system: phosphorylation of ERK, KRAS G12V in SW620; test: pERK inhibition assay; assay type: cell-based; conditions: Homo sapiens, SW-620, 4 h, SW620 cells
Method in brief: as §2

Sequence of KRAS G12C-BRAF complex (P01116-2 other isoform, or with tags, fused parts or gaps G12C): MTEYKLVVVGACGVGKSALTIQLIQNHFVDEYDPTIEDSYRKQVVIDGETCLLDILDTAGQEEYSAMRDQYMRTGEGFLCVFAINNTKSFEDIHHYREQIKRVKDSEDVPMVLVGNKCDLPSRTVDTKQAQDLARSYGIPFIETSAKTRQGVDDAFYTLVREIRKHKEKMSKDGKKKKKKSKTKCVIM
Sequence of KRAS G12C-BRAF complex (P62937 whole entry): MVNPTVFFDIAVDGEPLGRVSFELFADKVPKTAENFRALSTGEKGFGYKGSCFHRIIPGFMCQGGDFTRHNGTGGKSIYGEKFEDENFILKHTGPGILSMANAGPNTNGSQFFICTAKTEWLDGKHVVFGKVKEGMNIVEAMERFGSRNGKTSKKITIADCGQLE

| SMILES | IC50 [1] [nM] | IC50 [2] [nM] | IC50 [3] [nM] | IC50 [4] [nM] | IC50 [5] [nM] | IC50 [6] [nM] | IC50 [7] [nM] |
| --- | --- | --- | --- | --- | --- | --- | --- |
| CO[C@@H](C)c1ncc(N2CCN(CC(F)(F)F)CC2)cc1-c1c2c3cc(cc4c3n1CCC4)-c1csc(n1)C[C@H](NC(=O)[C@H]1C[C@@H]1C(F)F)C(=O)N1CCC[C@H](N1)C(=O)OCC(C)(C)C2 (atropisomer, axis not shown; (M)) [Example 21, (1S,2S)-2-(difluoromethyl)-N-[(7S,13S)-(20M)-20-[2-[(1S)-1-methoxyethyl]-5-[4-(2,2,2-trifluoroethyl)piperazin-1-yl]-3-pyridyl]-17,17-dimethyl-8,14-dioxo-15-oxa-4-thia-9,21,30,31-tetrazahexacyclo[23.3.1.1^2,5.1^9,13.0^19,27.0^21,26]hentriaconta-1 (28),2,5 (31),19,25 (29),26-hexaen-7-yl]cyclopropanecarboxamide] | 15 | 1.9 | 15.3 | 56.2 | 2.1 | 8.8 | 1.4 |
| CO[C@@H](C)c1ncc(N2CCN(C)CC2)cc1-c1c2c3cc(cc4c3n1CCC4)-c1csc(n1)C[C@H](NC(=O)[C@@H]1C[C@H]1c1cncc(C)c1)C(=O)N1CCC[C@H](N1)C(=O)OCC(C)(C)C2 (atropisomer, axis not shown; (M)) [Example 120, (1R,2R)-N-[(7S,13S)-(20M)-20-[2-[(1S)-1-methoxyethyl]-5-(4-methylpiperazin-1-yl)-3-pyridyl]-17,17-dimethyl-8,14-dioxo-15-oxa-4-thia-9,21,30,31-tetrazahexacyclo[23.3.1.1^2,5.1^9,13.0^19,27.0^21,26]hentriaconta-1 (28),2,5 (31), 19,25 (29),26-hexaen-7-yl]-2-(5-methyl-3-pyridyl)cyclopropanecarboxamide] | 20.4 | 0.4 | 1.4 | 2.2 | 1.1 | 2.9 | 0.9 |
| CO[C@@H](C)c1ncc(N2CCN(C)CC2)cc1-c1c2c3cc(cc4c3n1CCO4)-c1csc(n1)C[C@H](NC(=O)[C@H]1C[C@@H]1c1cccnc1)C(=O)N1CCC[C@H](N1)C(=O)OCC(C)(C)C2 (atropisomer, axis not shown; (M)) [Example 96, (1S,2S)-N-[(7S,13S)-(20M)-20-[2-[(1S)-1-methoxyethyl]-5-(4-methylpiperazin-1-yl)-3-pyridyl]-17,17-dimethyl-8,14-dioxo-15,24-dioxa-4-thia-9,21,30,31-tetrazahexacyclo[23.3.1.1^2,5.1^9,13.0^19,27.0^21,26]hentriaconta-1 (28),2,5 (31),19,25 (29),26-hexaen-7-yl]-2-(3-pyridyl)cyclopropanecarboxamide] | 9.4 | 0.2 | 1 | 1.7 | 0.4 | 1.2 | 0.4 |
| CO[C@@H](C)c1ncc(N2CCN(C)CC2)cc1-c1c2c3cc(cc4c3n1CCO4)-c1csc(n1)C[C@H](NC(=O)[C@H]1C[C@@H]1c1ccccc1)C(=O)N1CCC[C@H](N1)C(=O)OCC(C)(C)C2 (atropisomer, axis not shown; (M)) [Example 51, (1S,2S)-N-[(7S,13S)-(20M)-20-[2-[(1S)-1-methoxyethyl]-5-(4-methylpiperazin-1-yl)-3-pyridyl]-17,17-dimethyl-8,14-dioxo-15,24-dioxa-4-thia-9,21,30,31-tetrazahexacyclo[23.3.1.1^2,5.1^9,13.0^19,27.0^21,26]hentriaconta-1 (29),2,5 (31), 19,25,27-hexaen-7-yl]-2-phenyl-cyclopropanecarboxamide] | 21.1 | 1.4 | 5.9 | 13.3 | 1 | 4.8 | 0.7 |
| CO[C@@H](C)c1ncc(N2CCN3CCCC[C@@H]3C2)cc1-c1c2c3cc(cc4c3n1CCC4)-c1csc(n1)C[C@H](NC(=O)[C@H]1C[C@@H]1C)C(=O)N1CCC[C@H](N1)C(=O)OCC(C)(C)C2 (atropisomer, axis not shown; (M)) [Example 49, (1S,2S)-N-[(7S,13S)-(20M)-20-[5-[(9αR)-1,3,4,6,7,8,9,9a-octahydropyrido[1,2-a]pyrazin-2-yl]-2-[(1S)-1-methoxyethyl]-3-pyridyl]-17,17-dimethyl-8,14-dioxo-15-oxa-4-thia-9,21,30,31-tetrazahexacyclo[23.3.1.1^2,5.1^9,13.0^19,27.0^21,26]hentriaconta-1 (28),2,5 (31), 19,25 (29),26-hexaen-7-yl]-2-methyl-cyclopropanecarboxamide] | 17.5 | 1.7 | 9.7 | 29.1 | 2.4 | 13.7 | 1.3 |
| CO[C@@H](C)c1ncc(N2CCN(C)CC2)cc1-c1c2c3cc(cc4c3n1CCC4)-c1csc(n1)C[C@H](NC(=O)[C@@H]1C[C@H]1c1cscn1)C(=O)N1CCC[C@H](N1)C(=O)OCC(C)(C)C2 (atropisomer, axis not shown; (M)) [Example 114, (1R,2R)-N-[(7S,13S)-(20M)-20-[2-[(1S)-1-methoxyethyl]-5-(4-methylpiperazin-1-yl)-3-pyridyl]-17,17-dimethyl-8,14-dioxo-15-oxa-4-thia-9,21,30,31-tetrazahexacyclo[23.3.1.1^2,5.1^9,13.0^19,27.0^21,26]hentriaconta-1 (28),2,5 (31), 19,25 (29),26-hexaen-7-yl]-2-thiazol-4-yl-cyclopropanecarboxamide] | 8.9 | 1.3 | 4.5 | 5.1 | 1.2 | 7.5 | 1 |
| CO[C@@H](C)c1ncc(N2CCOCC2)cc1-c1c2c3cc(cc4c3n1CCC4)-c1csc(n1)C[C@H](NC(=O)[C@H]1[C@@H]3COC[C@@H]31)C(=O)N1CCC[C@H](N1)C(=O)OCC(C)(C)C2 (atropisomer, axis not shown; (M)) [Example 7, (1S,5R,6r)-N-[(7S,13S)-(20M)-20-[2-[(1S)-1-methoxyethyl]-5-morpholino-3-pyridyl]-17,17-dimethyl-8,14-dioxo-15-oxa-4-thia-9,21,30,31-tetrazahexacyclo[23.3.1.1^2,5.1^9,13.0^19,27.0^21,26]hentriaconta-1 (28),2,5 (31), 19,25 (29),26-hexaen-7-yl]-3-oxabicyclo[3.1.0]hexane-6-carboxamide] | 9.4 | 0.8 | 2.4 | 13.1 | 1.6 | 7.9 | 1.2 |
| CO[C@@H](C)c1ncc(N2CCOCC2)cc1-c1c2c3cc(cc4c3n1CCC4)-c1csc(n1)C[C@H](NC(=O)[C@H]1C[C@@H]1c1cccnc1)C(=O)N1CCC[C@H](N1)C(=O)OCC(C)(C)C2 (atropisomer, axis not shown; (M)) [Example 89, (1S,2S)-N-[(7S,13S)-(20M)-20-[2-[(1S)-1-methoxyethyl]-5-morpholino-3-pyridyl]-17,17-dimethyl-8,14-dioxo-15-oxa-4-thia-9,21,30,31-tetrazahexacyclo[23.3.1.1^2,5.1^9,13.0^19,27.0^21,26]hentriaconta-1 (28),2,5 (31), 19,25 (29),26-hexaen-7-yl]-2-(3-pyridyl)cyclopropanecarboxamide] | 6 | 0.3 | 1.5 | 6 | 0.6 | 4.8 | 0.4 |
| CO[C@@H](C)c1ncc(N2CCN(C)CC2)cc1-c1c2c3cc(cc4c3n1CCO4)-c1csc(n1)C[C@H](NC(=O)C1(C)CC1(F)F)C(=O)N1CCC[C@H](N1)C(=O)OCC(C)(C)C2 (stereo partly drawn) [Example 54, 2,2-difluoro-N-[(7S,13S)-(20M)-20-[2-[(1S)-1-methoxyethyl]-5-(4-methylpiperazin-1-yl)-3-pyridyl]-17,17-dimethyl-8,14-dioxo-15,24-dioxa-4-thia-9,21,30,31-tetrazahexacyclo[23.3.1.1^2,5.1^9,13.0^19,27.0^21,26]hentriaconta-1 (29),2,5 (31), 19,25,27-hexaen-7-yl]-1-methyl-cyclopropanecarboxamide] | 23.3 | 3 | 12.1 | 36.8 | 1.3 | 8.8 | 1 |
| CO[C@@H](C)c1ncc(N2CCN(C)CC2)cc1-c1c2c3cc(cc4c3n1CCC4)-c1csc(n1)C[C@H](NC(=O)[C@H]1C[C@@H]1C(F)F)C(=O)N1CCC[C@H](N1)C(=O)OCC(C)(C)C2 (atropisomer, axis not shown; (M)) [Example 14, (1S,2S)-2-(difluoromethyl)-N-[(7S,13S)-(20M)-20-[2-[(1S)-1-methoxyethyl]-5-(4-methylpiperazin-1-yl)-3-pyridyl]-17,17-dimethyl-8,14-dioxo-15-oxa-4-thia-9,21,30,31-tetrazahexacyclo[23.3.1.1^2,5.1^9,13.0^19,27.0^21,26]hentriaconta-1 (28),2,5 (31),19,25 (29),26-hexaen-7-yl]cyclopropanecarboxamide] | 22.2 | 1 | 3.6 | 17.5 | 0.8 | 5.6 | 0.7 |
